Source: US20220287936A1, “AN ANTIDANDRUFF COMPOSITION” (Conopco, Inc., d/b/a UNILEVER, priority 2019, published 2022)

Tested on: Malassezia furfur 14521
Assay: Antifungal activity on M. furfur (resazurin viability assay, MIC and ΣFIC synergy evaluation)
Assay type: cell-based
Conditions: M. furfur 14521, YPD broth, 30° C., 72 hours, resazurin readout
Method: The samples as given in Table-1 were subjected to their anti fungal efficacy on M. furfur as described hereinafter.
The test organism used in the assay is Malassezia furfur 14521. The M. furfur were revived from glycerol stock in YPD agar plates (yeast extract peptone dextrose media) containing 1% corn oil. The composition of YPD is yeast extract:10 g/litre, dextrose 20 g/litre, Peptone 20 g/litre and […]. The plates were incubated at 30° C. for 72 hours for forming fungal colonies. A suspension culture of M. furfur was made using the colonies from plates in YPD broth. The optical density of the suspension culture was adjusted to 0.6 using spectrophotometer. This suspension was diluted in the ratio of 1:10 using YPD broth and 100 μl of this culture was added into each well of 96 well test plate. A stock solution of 4× strength of test ingredients (itaconic acid and sodium benzoate) was prepared for each of the concentrations tested eg for 0.125% test concentration of itaconic acid/sodium benzoate a stock of 0.5% was prepared in YPD broth. 50 μl of each of the test ingredient was added to 100 μl of M. furfur culture, making the final volume to 200 μl. In wells containing only one test ingredient, (itaconic acid or sodium benzoate only) 50 μl of test ingredient was added to 100 μl of fungal culture and then made up the volume to 200 μl with YPD broth. The plates were incubated at 30° C. for 72 hours. Post incubation 10 μl of 1% resazurin was added to each well and incubated for 18 hours at 30° C. […] The anti-fungal efficacy of the ingredient or combination of ingredients is calculated based on the colour development.
The combinations of test ingredients with synergistic anti-fungal benefits were evaluated using ΣFIC method. The ΣFIC of the combinations were calculated using the following formula • ΣFIC of combination A+B=[Concentration of A]/MIC of A+[concentration of B]/MIC of B, where MIC is the Minimum inhibitory concentration (MIC) of ingredient. […]

SMILES	MIC (Minimum inhibitory concentration) [wt %]
C=C(CC(=O)OC)C(=O)OC [Dimethyl itaconate]	0.5
C=C(CC(=O)O)C(=O)O [Itaconic acid]	0.25
O=C([O-])c1ccccc1.[Na+] [Sodium Benzoate]	0.5
